From ChEMBL document CHEMBL1201862, “PubChem BioAssay data set” (2004)
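These data come from cells grown in 96-well plates and exposed to compound for 48 hours at five concentrations. GI50: concentration for 50% inhibition of growth.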 Activity calls are given as the source filed them. No stated cut-off is given here; in the data, active = GI50 up to about 1.1 µM and inactive = higher.

Legend:
Experiment in all cases: NCI anticancer screen, dose series, 48 h
[1] = test system: SW-620
[2] = test system: Malme-3M
[3] = test system: MDA-N
[4] = test system: HCT-15
[5] = test system: SK-MEL-5
[6] = test system: EKVX
[7] = test system: HT-29
[8] = test system: HL-60
[9] = test system: UACC-257
[10] = test system: SNB-19
[11] = test system: KM12
[12] = test system: MOLT-4
[13] = test system: OVCAR-8
[14] = test system: OVCAR-4
[15] = test system: HOP-62
[16] = test system: DU-145
[17] = test system: 786-0
[18] = test system: Hs-578T
[19] = test system: NCI-H460

Compound | GI50 [1] | GI50 [2] | GI50 [3] | GI50 [4] [µM] | GI50 [5] | GI50 [6] | GI50 [7] | GI50 [8] | GI50 [9] | GI50 [10] | GI50 [11] | GI50 [12] | GI50 [13] | GI50 [14] | GI50 [15] | GI50 [16] | GI50 [17] | GI50 [18] | GI50 [19]
CCO[C@]12CCC[C@H]1[C@@H]1C(=O)c3ccccc3C(=O)C1=C(C)O2 | 37.2 µM (inactive) | > 100 µM (inactive) | 19.5 µM (inactive) | > 100 | 33.7 µM (inactive) | > 100 µM (inactive) | > 100 µM (inactive) | 41.7 µM (inactive) | > 100 µM (inactive) | > 100 µM (inactive) | > 100 µM (inactive) | 33.6 µM (inactive) | 40.1 µM (inactive) | 26.3 µM (inactive) | > 100 µM (inactive) | 58.1 µM (inactive) | 29.2 µM (inactive) | > 100 µM (inactive) | > 100 µM (inactive)
COc1cccc2c1C(=O)c1c(O)c3c(c(O)c1C2=O)CC(O)(C(O)CO)CC3OC1CC2C(OC3COCC(C#N)N32)C(C)O1 (configuration not stated) | < 0.01 µM (active) | < 0.01 µM (active) | < 0.01 µM (active) | < 0.01 | < 0.01 µM (active) | < 0.01 µM (active) | < 0.01 µM (active) | < 0.01 µM (active) | < 0.01 µM (active) | < 0.01 µM (active) | < 0.01 µM (active) | < 0.01 µM (active) | < 0.01 µM (active) | < 0.01 µM (active) | < 0.01 µM (active) | < 0.01 µM (active) | < 0.01 µM (active) | < 0.01 µM (active) | < 0.01 µM (active)
CCOC(=O)C(Cc1ccccc1)(Cc1ccc(O)cn1)NC(=O)c1ccccc1 (configuration not stated) | 29.6 µM (inactive) | 14.2 µM (inactive) | 6.27 µM (inactive) | 19.7 | 16.5 µM (inactive) | 25.9 µM (inactive) | 26.5 µM (inactive) | 21.7 µM (inactive) | 23.5 µM (inactive) | 32 µM (inactive) | 17.5 µM (inactive) | 27.9 µM (inactive) | 31.6 µM (inactive) | 27.4 µM (inactive) | 32.2 µM (inactive) | 27.5 µM (inactive) | 24.9 µM (inactive) | 16.3 µM (inactive) | 27.4 µM (inactive)
N#CC(C#N)=Cc1c(O)ccc2ccccc12 | 11.9 µM (inactive) | 17 µM (inactive) | 12.7 µM (inactive) | 14.1 | 13.3 µM (inactive) | 12 µM (inactive) | 14.5 µM (inactive) | 2.99 µM (inactive) | 16.8 µM (inactive) | 15.4 µM (inactive) | 17.8 µM (inactive) | 2.18 µM (inactive) | 16.3 µM (inactive) | 18.3 µM (inactive) | 20.6 µM (inactive) | 14.2 µM (inactive) | 13.3 µM (inactive) | 17.3 µM (inactive) | 14.7 µM (inactive)
COCC1OC(Sc2ccccc2)C(O)C(OC)C1OC (configuration not stated) | > 100 µM (inactive) | > 100 µM (inactive) | > 100 µM (inactive) | > 100 | > 100 µM (inactive) | > 100 µM (inactive) | > 100 µM (inactive) | > 100 µM (inactive) | > 100 µM (inactive) | > 100 µM (inactive) | > 100 µM (inactive) | > 100 µM (inactive) | > 100 µM (inactive) | > 100 µM (inactive) | > 100 µM (inactive) | > 100 µM (inactive) | > 100 µM (inactive) | > 100 µM (inactive) | > 100 µM (inactive)
CCCN(CCC)C(=O)c1c(N2CCN(C)CC2)c2cccnc2n2c(C)cnc12 | 17.5 µM (inactive) | > 100 µM (inactive) | > 100 µM (inactive) | > 100 | > 100 µM (inactive) | > 100 µM (inactive) | > 100 µM (inactive) | > 100 µM (inactive) | > 100 µM (inactive) | 27.5 µM (inactive) | > 100 µM (inactive) | 85.9 µM (inactive) | > 100 µM (inactive) | > 100 µM (inactive) | > 100 µM (inactive) | > 100 µM (inactive) | > 100 µM (inactive) | > 100 µM (inactive) | > 100 µM (inactive)
COC(O)C(=O)c1c2c(cc3c1CCC3)CCC2 (configuration not stated) | > 100 µM (inactive) | > 100 µM (inactive) | > 100 µM (inactive) | > 100 | > 100 µM (inactive) | > 100 µM (inactive) | > 100 µM (inactive) | 22.6 µM (inactive) | > 100 µM (inactive) | > 100 µM (inactive) | 70.1 µM (inactive) | > 100 µM (inactive) | > 100 µM (inactive) | > 100 µM (inactive) | > 100 µM (inactive) | > 100 µM (inactive) | > 100 µM (inactive) | > 100 µM (inactive) | > 100 µM (inactive)
NCCCCCNOCCCN | > 100 µM (inactive) | > 100 µM (inactive) | > 100 µM (inactive) | > 100 | > 100 µM (inactive) | > 100 µM (inactive) | > 100 µM (inactive) | > 100 µM (inactive) | > 100 µM (inactive) | > 100 µM (inactive) | > 100 µM (inactive) | > 100 µM (inactive) | > 100 µM (inactive) | > 100 µM (inactive) | > 100 µM (inactive) | > 100 µM (inactive) | > 100 µM (inactive) | > 100 µM (inactive) | > 100 µM (inactive)
